The values below come from paper PMC11995724, “Antibiotic target discovery by integrated phenotypic and activity-based profiling of electrophilic fragments” (Cell chemical biology, 2025).

As a reminder, the viability is a read-out of living cells in per cent, often relative to untreated cells.

Structures are written as SMILES.

The nature of this series: in vitro. The note with it: human, hek293t cells.
As to `O=C(CCl)NCc1ccc(C(=O)N2CCOCC2)cc1` [5-L14, 2-chloro-N-{[4-(morpholine-4-carbonyl)phenyl]methyl}acetamide], the viability at 48 h, 25 µM was 67.7%.

Take `NC(=O)CCc1ccc(C(=O)CCl)cc1` [10-I03, 3-[4-(2-chloroacetyl)phenyl]propanamide]: the viability at 48 h, 25 µM came out at 4.69%.

For the molecule `O=C(CCl)Nc1ccc(S(=O)(=O)Nc2nccs2)cc1` [4-B14, 2-chloro-N-{4-[(1,3-thiazol-2-yl)sulfamoyl]phenyl}acetamide], the viability at 48 h, 25 µM came out at 1.19%.

For `C=CC(=O)NC(C)(C)c1nc(-c2ccccc2F)c(C)s1` [1-H04, N-{2-[4-(2-fluorophenyl)-5-methyl-1,3-thiazol-2-yl]propan-2-yl}prop-2-enamide], the viability at 48 h, 25 µM came out at 73.5%.

In the case of `O=C(CCl)N1C2CCC1c1ccccc12` [5-M11, 1-{11-azatricyclo[6.2.1.0,2,7]undeca-2,4,6-trien-11-yl}-2-chloroethan-1-one], the viability at 48 h, 25 µM was -0.105%.

On to `C=CC(=O)N1CCC(C(=O)N2CCC(C(=O)NC3CC3)CC2)CC1` [2-D10, N-cyclopropyl-1-[1-(prop-2-enoyl)piperidine-4-carbonyl]piperidine-4-carboxamide], for which the viability at 48 h, 25 µM is 76.9%.

In the case of `CN(C)C(=O)c1ccc(CNC(=O)CCl)cc1` [6-C16, 4-[(2-chloroacetamido)methyl]-N,N-dimethylbenzamide], the viability at 48 h, 25 µM was 67.8%.

Take `Cc1ccc(S(=O)(=O)N2CCCCC2)cc1NC(=O)CCl` [4-L06, 2-chloro-N-[2-methyl-5-(piperidine-1-sulfonyl)phenyl]acetamide]: the viability at 48 h, 25 µM was determined as 0.53%.

As to `COc1ccc(C=C(C#N)C(=O)Nc2ccccc2C)cc1` [8-P07, 2-cyano-3-(4-methoxyphenyl)-N-(2-methylphenyl)prop-2-enamide], the viability at 48 h, 25 µM came out at 114%.

For the molecule `C=CC(=O)N1CCC(C(=O)Nc2nc3cc(F)ccc3n2CC)CC1` [3-I13, N-(1-ethyl-5-fluoro-1H-1,3-benzodiazol-2-yl)-1-(prop-2-enoyl)piperidine-4-carboxamide], the viability at 48 h, 25 µM was found to be 62.5%.

With `O=C(CCl)NCC1CCCCC1` [5-J06, 2-chloro-N-(cyclohexylmethyl)acetamide], the viability at 48 h, 25 µM was 52.1%.

In the case of `O=C(CCl)C1CC12CCCCC2` (stereo not drawn) [10-A19, 2-chloro-1-{spiro[2.5]octan-1-yl}ethan-1-one], the viability at 48 h, 25 µM came to 86.3%.

For `Cc1cc(C)c(-c2cc(NC(=O)CCl)n(-c3ccccc3)n2)cc1C` [6-A10, 2-chloro-N-[1-phenyl-3-(2,4,5-trimethylphenyl)-1H-pyrazol-5-yl]acetamide], the viability at 48 h, 25 µM turned out to be 0.264%.

`C=CC(=O)N(C)Cc1ccnn1CC` [1-F07, N-[(1-ethyl-1H-pyrazol-5-yl)methyl]-N-methylprop-2-enamide]: the viability at 48 h, 25 µM stood at 100%.

As for `C=CC(=O)Nc1ccccc1CCSC` [1-A19, N-{2-[2-(methylsulfanyl)ethyl]phenyl}prop-2-enamide], the viability at 48 h, 25 µM was 93.5%.

As to `CC(Cl)C(=O)NCCc1ccccc1` (stereo not drawn) [4-K14, 2-chloro-N-(2-phenylethyl)propanamide], the viability at 48 h, 25 µM turned out to be 102%.

Regarding `C=CC(=O)NCCNC(=O)c1c(C)cc(C)nc1C` [2-I12, N-{2-[(2,4,6-trimethylpyridin-3-yl)formamido]ethyl}prop-2-enamide], the viability at 48 h, 25 µM turned out to be 104%.

With `Cc1ccc(C)c(N2C(=O)C=CC2=O)c1` [10-F13, 1-(2,5-dimethylphenyl)-2,5-dihydro-1H-pyrrole-2,5-dione], the viability at 48 h, 25 µM amounted to 109%.

With `C=CC(=O)Nc1ccc(C(=O)N[C@H]2COC[C@@H]2OC)cc1` (racemic) [3-C08, rac-N-[(3R,4S)-4-methoxyoxolan-3-yl]-4-(prop-2-enamido)benzamide], the viability at 48 h, 25 µM was 85.1%.

Take `N#CC(=Cc1cccc(Cl)c1)C(=O)NCc1ccccc1` [9-L13, N-benzyl-3-(3-chlorophenyl)-2-cyanoprop-2-enamide]: the viability at 48 h, 25 µM came to 39.5%.

As to `CC(Cc1ccc(Cl)s1)NC(=O)CCl` (stereo not drawn) [5-N11, 2-chloro-N-[1-(5-chlorothiophen-2-yl)propan-2-yl]acetamide], the viability at 48 h, 25 µM turned out to be 0.992%.

For the molecule `C=CCNC(=O)C(C#N)=Cc1cc(F)ccc1F` [9-H07, 2-cyano-3-(2,5-difluorophenyl)-N-(prop-2-en-1-yl)prop-2-enamide], the viability at 48 h, 25 µM was determined as 111%.

Take `CC(C)C(NC(=O)CCl)c1ccc(F)cc1` (stereo not drawn) [4-E13, 2-chloro-N-[1-(4-fluorophenyl)-2-methylpropyl]acetamide]: the viability at 48 h, 25 µM was 1.68%.

As for `C=CC(=O)N(C)Cc1cc(-c2ccccc2)[nH]n1` [1-B05, N-methyl-N-[(5-phenyl-1H-pyrazol-3-yl)methyl]prop-2-enamide], the viability at 48 h, 25 µM was determined as 92.7%.

As to `C=CC(=O)N1CCC(C(=O)Nc2ccn(Cc3ccccn3)n2)CC1` [3-B07, 1-(prop-2-enoyl)-N-{1-[(pyridin-2-yl)methyl]-1H-pyrazol-3-yl}piperidine-4-carboxamide], the viability at 48 h, 25 µM was 53.3%.

As for `CNC(=O)c1cc(C(=O)CCl)cn1C` [10-G10, 4-(2-chloroacetyl)-N,1-dimethyl-1H-pyrrole-2-carboxamide], the viability at 48 h, 25 µM is 1.73%.

`CC(C#N)Oc1ccc(C=C(C#N)C(=O)Nc2ccccc2Cl)cc1` (stereo not drawn) [9-E05, N-(2-chlorophenyl)-2-cyano-3-[4-(1-cyanoethoxy)phenyl]prop-2-enamide]: the viability at 48 h, 25 µM was found to be 111%.

Consider `COc1cc(NC(=O)C(C)Cl)cc(OC)c1` (stereo not drawn) [4-I04, 2-chloro-N-(3,5-dimethoxyphenyl)propanamide], for which the viability at 48 h, 25 µM was 81.7%.

For the molecule `CC(Cl)C(=O)N(CCc1ccc(F)cc1F)C(C)C` (stereo not drawn) [6-D18, 2-chloro-N-[2-(2,4-difluorophenyl)ethyl]-N-(propan-2-yl)propanamide], the viability at 48 h, 25 µM worked out at 101%.

On to `O=C(CCl)NCc1ccc(C(=O)N2CCCC2)cc1` [6-G04, 2-chloro-N-{[4-(pyrrolidine-1-carbonyl)phenyl]methyl}acetamide], for which the viability at 48 h, 25 µM came out at 107%.

`N#CC(=Cc1cccs1)C(=O)Nc1nccs1` [8-G13, 2-cyano-N-(1,3-thiazol-2-yl)-3-(thiophen-2-yl)prop-2-enamide]: the viability at 48 h, 25 µM came out at 110%.

With `N#CC(=Cc1cccc([N+](=O)[O-])c1)C(=O)NCc1ccccc1` [8-B22, N-benzyl-2-cyano-3-(3-nitrophenyl)prop-2-enamide], the viability at 48 h, 25 µM stood at 32%.

Take `CC(Cl)C(=O)NCC1CN(S(C)(=O)=O)C1` (stereo not drawn) [7-C04, 2-chloro-N-[(1-methanesulfonylazetidin-3-yl)methyl]propanamide]: the viability at 48 h, 25 µM worked out at 118%.

Regarding `CC(Cl)C(=O)N(Cc1cnn(C)c1)c1ccc(F)cc1` (stereo not drawn) [6-P11, 2-chloro-N-(4-fluorophenyl)-N-[(1-methyl-1H-pyrazol-4-yl)methyl]propanamide], the viability at 48 h, 25 µM came out at 114%.

In the case of `CC(NC(=O)CCl)c1ccc(-c2ccccc2)cc1` (stereo not drawn) [5-A17, N-(1-{[1,1'-biphenyl]-4-yl}ethyl)-2-chloroacetamide], the viability at 48 h, 25 µM stood at 123%.

As to `CC(Cl)C(=O)Nc1cc(C(F)(F)F)ccc1Cl` (stereo not drawn) [4-N15, 2-chloro-N-[2-chloro-5-(trifluoromethyl)phenyl]propanamide], the viability at 48 h, 25 µM was 83.3%.

For the molecule `CC(Cl)C(=O)Nc1c(Cl)cc(Cl)cc1Cl` (stereo not drawn) [6-K09, 2-chloro-N-(2,4,6-trichlorophenyl)propanamide], the viability at 48 h, 25 µM was 115%.

Regarding `O=C(CCl)NC(Cc1ccccc1)C(=O)O` (stereo not drawn) [6-C13, 2-(2-chloroacetamido)-3-phenylpropanoic acid], the viability at 48 h, 25 µM turned out to be 97.4%.

With `CN(C)S(=O)(=O)c1cc(NC(=O)CCl)ccc1Cl` [5-E13, 2-chloro-N-[4-chloro-3-(dimethylsulfamoyl)phenyl]acetamide], the viability at 48 h, 25 µM amounted to 0.0364%.

Take `CC(O)=C(C#N)C(=O)Nc1ccc(-c2ccccc2Cl)c(Cl)c1` [9-L22, 2-cyano-N-{2,2'-dichloro-[1,1'-biphenyl]-4-yl}-3-hydroxybut-2-enamide]: the viability at 48 h, 25 µM is 117%.

In the case of `C=CC(=O)N1CCC(C(=O)N(C)Cc2cc(C(C)(C)C)[nH]n2)CC1` [2-F10, N-[(5-tert-butyl-1H-pyrazol-3-yl)methyl]-N-methyl-1-(prop-2-enoyl)piperidine-4-carboxamide], the viability at 48 h, 25 µM was determined as 45.6%.

Take `Cc1cc(NC(=O)CCl)c([N+](=O)[O-])cc1C` [4-F21, 2-chloro-N-(4,5-dimethyl-2-nitrophenyl)acetamide]: the viability at 48 h, 25 µM came out at 112%.

In the case of `COC(=O)c1ccc(C=C(C#N)C(=O)NC(C)C)n1C` [9-P12, methyl 5-{2-cyano-2-[(propan-2-yl)carbamoyl]eth-1-en-1-yl}-1-methyl-1H-pyrrole-2-carboxylate], the viability at 48 h, 25 µM stood at 115%.

On to `CCOc1cc(C=C(C#N)C(=O)NC(C)C)cc(Cl)c1O` [9-I13, 3-(3-chloro-5-ethoxy-4-hydroxyphenyl)-2-cyano-N-(propan-2-yl)prop-2-enamide], for which the viability at 48 h, 25 µM worked out at 87.3%.

For the molecule `C=CC(=O)Nc1ccccc1Cl` [1-O10, N-(2-chlorophenyl)prop-2-enamide], the viability at 48 h, 25 µM was 63%.

With `C=CC(=O)NCc1ccc(C(=O)N2CCC[C@@H]2C(N)=O)cc1` [3-L22, (2R)-1-{4-[(prop-2-enamido)methyl]benzoyl}pyrrolidine-2-carboxamide], the viability at 48 h, 25 µM came out at 81.9%.

Take `O=C(CCl)NC1CCCN(Cc2ccccc2)C1=O` (stereo not drawn) [7-J10, N-(1-benzyl-2-oxopiperidin-3-yl)-2-chloroacetamide]: the viability at 48 h, 25 µM worked out at 55.1%.

Take `CCCc1ccc(-c2csc(NC(=O)CCl)n2)cc1` [4-C09, 2-chloro-N-[4-(4-propylphenyl)-1,3-thiazol-2-yl]acetamide]: the viability at 48 h, 25 µM amounted to 1.34%.

Consider `Cn1ncc(C(=O)CCl)n1` [10-J10, 2-chloro-1-(2-methyl-2H-1,2,3-triazol-4-yl)ethan-1-one], for which the viability at 48 h, 25 µM worked out at 85.5%.

With `COc1ccc(NC(=O)C(C)Cl)cc1Cl` (stereo not drawn) [4-I14, 2-chloro-N-(3-chloro-4-methoxyphenyl)propanamide], the viability at 48 h, 25 µM was determined as 90.7%.

As to `COc1ccccc1N(CC(F)(F)F)C(=O)CCl` [4-C18, 2-chloro-N-(2-methoxyphenyl)-N-(2,2,2-trifluoroethyl)acetamide], the viability at 48 h, 25 µM stood at 7.84%.
